Reference: patent US11395854B2, “Trialkyl cationic lipids and methods of use thereof” (ARBUTUS BIOPHARMA CORPORATION, priority 2012, dated 2022)

Key:
[1] = test system: ApoB (normalized to the housekeeping gene GAPDH), liver; assay: murine ApoB model with a different, less potent siRNA sequence; liver ApoB silencing via Quantigene Assay; format: in vivo, Mice; details: 0.04 mg/kg siRNA; for ApoB gene silencing relative to PBS control (Liver ApoB:GAPD mRNA ratio): intravenous (tail vein), 48 h after dosing, different, less potent siRNA sequence
Protocol: In another experiment, two more lipids of the present invention (Compounds 62 and 71) were formulated into lipid nanoparticles with siRNA to target ApoB. Mice were dosed intravenously (tail vein) and sacrificed 48 h after dosing. Livers were harvested and homogenized, and the level of ApoB silencing (normalized to the housekeeping gene GAPDH) then measured via Quantigene Assay. The results are shown in Table 6 and are expressed as a percentage, relative to a PBS-treated negative control group. […] Inter-experiment comparisons are therefore not possible: […]

[2] = test system: ApoB expression in the livers (Liver ApoB:GAPD mRNA ratio); assay: murine ApoB siRNA activity model: ApoB knockdown in liver by nucleic acid-lipid particles containing the cationic lipid; format: in vivo, female BALB/c mice
Protocol: This Example compares the effectiveness, in a murine ApoB siRNA activity model, of short chain trialkyl lipids of the present invention with lipids having longer alkyl chains but which are otherwise structurally identical to the short chain trialkyl lipids.
Nucleic acid-lipid particle formulations containing cationic lipids were assessed for their ability to knockdown ApoB expression in the livers of 7 to 9 week old female BALB/c mice. Mice were dosed intravenously (tail vein) in groups of three at either 0.02, 0.03 or 0.05 mg/kg. ApoB knockdown (normalized to the housekeeping gene GAPDH) was measured relative to PBS as a negative control. Each experiment was terminated at 48 hours after dosing.
For comparison to a positive control, the performance of short chain trialkyl lipids of the present invention was compared to a potent cationic lipid, referred to as C2K, that is known to facilitate nucleic acid delivery, in vivo, in nucleic acid-lipid particles (Nature Biotech., Vol 28(2),172 (2010)).

[3] = injected dose of 0.03 mg/kg, separate experiment

Row | Compound | activity compared to C2K [2, 3] | activity compared to C2K ([2]; injected dose of 0.02 mg/kg) | further results
1 | CC(C)CCCC(C)CCC(CCC(C)CCCC(C)C)C(CCC(C)CCCC(C)C)OC(=O)CCCCN(C)C (centres unmarked) [Compound 71, 10-(3,7-dimethyloctyl)-2,6,13,17-tetramethyloctadecan-9-yl 5-(dimethylamino)pentanoate] |  |  | ApoB gene silencing relative to PBS control (Liver ApoB:GAPD mRNA ratio) [1]: −29%
2 | CCCCC/C=C\CCCC(CCC/C=C\CCCCC)C(CCC/C=C\CCCCC)OC(=O)NCCN(C)C (centres unmarked) [Compound 25, (6Z,16Z)-12-((Z)-dec-4-enyl)docosa-6,16-dien-11-yl 2-(dimethylamino)ethylcarbamate] | greater activity than C2K |  | 
3 | CCCCC/C=C\CCCC(OC(=O)CCCCN(C)C)C(CCCCCCCCCC)CCCCCCCCCC (centres unmarked) [Compound 50, (Z)-12-decyldocos-6-en-11-yl 5-(dimethylamino)pentanoate] |  | greater activity than C2K | 
4 | CCCCC/C=C\CCCC(CCC/C=C\CCCCC)C(CCC/C=C\CCCCC)OC(=O)CCCCCN(C)C (centres unmarked) [Compound 11, (6Z,16Z)-12-((Z)-dec-4-enyl)docosa-6,16-dien-11-yl 6-(dimethylamino)hexanoate] | greater activity than C2K |  | 
5 | CCCCC/C=C\CCC(CC/C=C\CCCCC)C(CC/C=C\CCCCC)OC(=O)CCCN(C)C (centres unmarked) [Compound 40] |  | greater activity than C2K | 
6 | CCCCC/C=C\CCCC(CCC/C=C\CCCCC)C(CC/C=C\CCCCC)OC(=O)CCCCN(C)C (centres unmarked) [Compound 19, (6Z,15Z)-11-((Z)-dec-4-enyl)henicosa-6,15-dien-10-yl 5-(dimethylamino)pentanoate] | greater activity than C2K | greater activity than C2K | 
7 | CCCCC/C=C\C/C=C\CCCCCCCCC(CCCCCCCC/C=C\C/C=C\CCCCC)OCCCN(C)C [DLin-MP-DMA, reference compound] |  |  | effectiveness compared to C2K ([2]; three separate experiments, 0.03 or 0.05 mg/kg): more effective than C2K; ApoB gene silencing relative to PBS control (Liver ApoB:GAPD mRNA ratio) [1]: −32%
8 | CCCCC/C=C\CCCC(CCC/C=C\CCCCC)C(CCC/C=C\CCCCC)OCCCCN(C)C (centres unmarked) [Compound 62, 4-(((6Z,16Z)-12-((Z)-dec-4-en-1-yl)docosa-6,16-dien-11-yl)oxy)-N,N-dimethylbutan-1-amine] |  |  | activity compared to the DLin-MP-DMA control [1]: significantly more active; ApoB gene silencing relative to PBS control (Liver ApoB:GAPD mRNA ratio) [1]: −56%
9 | CCCCC/C=C\CCCC(CCC/C=C\CCCCC)C(CCC/C=C\CCCCC)OC(=O)CCCCN(C)C (centres unmarked) [Compound 13, (6Z,16Z)-12-((Z)-dec-4-enyl)docosa-6,16-dien-11-yl 5-(dimethylamino)pentanoate] | greater activity than C2K | greater activity than C2K | 
10 | CCCCC/C=C\CCCC(CCC/C=C\CCCCC)C(CC/C=C\CCCCC)OC(=O)CCCN(C)C (centres unmarked) [Compound 22, (6Z,15Z)-11-((Z)-dec-4-enyl)henicosa-6,15-dien-10-yl 4-(dimethylamino)butanoate] |  | greater activity than C2K | 
11 | CCCCC/C=C\CCCC(CCC/C=C\CCCCCC)C(CC/C=C\CCCCC)OC(=O)NCCCN(C)C (centres unmarked) [Compound 27, (6Z,15Z)-11-((Z)-dec-4-en-1-yl)docosa-6,15-dien-10-yl (3-(dimethylamino)propyl)carbamate] |  | greater activity than C2K | 
12 | CCCCC/C=C\CCCC(CCC/C=C\CCCCC)C(CCC/C=C\CCCCC)OC(=O)N(C)CCCN(C)C (centres unmarked) [Compound 23, (6Z,16Z)-12-((Z)-dec-4-enyl)docosa-6,16-dien-11-yl 3-(dimethylamino)propyl(methyl)carbamate] | greater activity than C2K |  | 
13 | CCCCC/C=C\CCCC(CCC/C=C\CCCCC)C(CCC/C=C\CCCCC)OC(=O)CCCN(C)C (centres unmarked) [Compound 9] |  | greater activity than C2K | 
